We go through 22 compounds from the NIST ThermoML archive (doi:10.1016/j.jct.2012.08.022).

Data set [1] is described as follows: activity coefficient (dimensionless); of the first substance listed, at infinite dilution; xn = mol fraction of the nth substance listed. The note with it: Liquid, Chromatography, x1 = 0.
For data set [2] the following is noted: 101.33 kPa, Liquid, vibrating tube.

Numbers after ± are expanded uncertainties.

For the compound `COCCOC` [1,2-dimethoxyethane] + CCCCn1cc[n+](C)c1.O=S(=O)([O-])O, the activity coefficient in data set [1] (313 K) came to 4.76 ± 0.32; in data set [1] (333 K) it was 5.61 ± 0.38; in data set [1] (353 K), 7.03 ± 0.48; in data set [1] (373 K), 8.44 ± 0.58; in data set [1] (393 K), 10 ± 0.7; in data set [1] (413 K) it was 11.6 ± 0.8.

Turning to `COCCOC` [1,2-dimethoxyethane] + Cn1cc[n+](C[Si](C)(C)C)c1.[Cl-], the activity coefficient was 3.42 ± 0.23 in data set [1] (313 K); 3.49 ± 0.24 in data set [1] (333 K); 3.56 ± 0.24 in data set [1] (353 K); 3.89 ± 0.26 in data set [1] (373 K); 3.89 ± 0.26 in data set [1] (393 K); 3.77 ± 0.26 in data set [1] (413 K).

Take `C1COCCO1` [1,4-dioxane] + CCCCn1cc[n+](C)c1.O=S(=O)([O-])O: the activity coefficient in data set [1] (313 K) came out at 2.72 ± 0.19; in data set [1] (333 K), 2.78 ± 0.19; in data set [1] (353 K), 2.99 ± 0.2; in data set [1] (373 K) it was 3.36 ± 0.23; in data set [1] (393 K), 3.8 ± 0.26; in data set [1] (413 K), 4.41 ± 0.3.

With `C1COCCO1` [1,4-dioxane] + Cn1cc[n+](C[Si](C)(C)C)c1.[Cl-], the activity coefficient in data set [1] (313 K) amounted to 2.14 ± 0.15; in data set [1] (333 K), 1.95 ± 0.13; in data set [1] (353 K), 2.07 ± 0.14; in data set [1] (373 K), 2.13 ± 0.14; in data set [1] (393 K), 2.16 ± 0.15; in data set [1] (413 K) it was 2.28 ± 0.16.

Take `CCCCn1cc[n+](C)c1.O=S(=O)([O-])O` [1-butyl-3-methylimidazolium hydrogen sulfate]: the mass density – broadly, the mass of a sample divided by its volume – in data set [2] (303 K) stood at 1275.9 ± 0.4 kg/m3; in data set [2] (308 K) it was 1272.5 ± 0.4 kg/m3; in data set [2] (313 K) it was 1269 ± 0.4 kg/m3; in data set [2] (318 K), 1266.4 ± 0.4 kg/m3; in data set [2] (323 K) it was 1263.4 ± 0.4 kg/m3; in data set [2] (328 K), 1260.4 ± 0.4 kg/m3. The mass density in data set [2] (333 K) was determined as 1257.4 ± 0.4 kg/m3; in data set [2] (338 K), 1254.5 ± 0.4 kg/m3; in data set [2] (343 K), 1251.5 ± 0.4 kg/m3; in data set [2] (348 K), 1248.6 ± 0.4 kg/m3; in data set [2] (353 K) it was 1245.7 ± 0.4 kg/m3; in data set [2] (358 K) it was 1242.8 ± 0.4 kg/m3. Besides, the mass density in data set [2] (363 K) is recorded as 1240 ± 0.4 kg/m3.

On to `Cn1cc[n+](C[Si](C)(C)C)c1.[Cl-]` [1-methyl-3-(trimethylsilylmethyl)imidazolium chloride], for which the mass density in data set [2] (313 K) was 1055.9 ± 1 kg/m3; in data set [2] (318 K), 1053 ± 0.9 kg/m3; in data set [2] (323 K), 1050.1 ± 0.9 kg/m3; in data set [2] (328 K), 1047.2 ± 0.9 kg/m3; in data set [2] (333 K), 1044.1 ± 0.9 kg/m3; in data set [2] (338 K), 1040.9 ± 0.9 kg/m3. The mass density is listed as 1038.1 ± 0.9 kg/m3 in data set [2] (343 K); 1035.3 ± 0.9 kg/m3 in data set [2] (348 K); 1032.4 ± 0.9 kg/m3 in data set [2] (353 K); 1029.6 ± 0.9 kg/m3 in data set [2] (358 K); 1026.8 ± 0.9 kg/m3 in data set [2] (363 K).

Regarding `CC#N` [acetonitrile] + CCCCn1cc[n+](C)c1.O=S(=O)([O-])O, the activity coefficient was found to be 1.23 ± 0.08 in data set [1] (313 K); 1.31 ± 0.09 in data set [1] (333 K); 1.28 ± 0.08 in data set [1] (353 K); 1.26 ± 0.08 in data set [1] (373 K); 1.24 ± 0.08 in data set [1] (393 K); 1.19 ± 0.08 in data set [1] (413 K).

As to `CC#N` [acetonitrile] + Cn1cc[n+](C[Si](C)(C)C)c1.[Cl-], the activity coefficient in data set [1] (313 K) is 0.629 ± 0.043; in data set [1] (333 K) it was 0.659 ± 0.045; in data set [1] (353 K), 0.695 ± 0.047; in data set [1] (373 K), 0.712 ± 0.047; in data set [1] (393 K) it was 0.73 ± 0.048; in data set [1] (413 K) it was 0.756 ± 0.05.

Turning to `c1ccccc1` [benzene] + CCCCn1cc[n+](C)c1.O=S(=O)([O-])O, the activity coefficient in data set [1] (313 K) worked out at 5.11 ± 0.35; in data set [1] (333 K), 4.95 ± 0.34; in data set [1] (353 K) it was 5.36 ± 0.37; in data set [1] (373 K), 5.28 ± 0.36; in data set [1] (393 K), 5.49 ± 0.37; in data set [1] (413 K) it was 5.69 ± 0.39.

Consider `c1ccccc1` [benzene] + Cn1cc[n+](C[Si](C)(C)C)c1.[Cl-], for which the activity coefficient in data set [1] (313 K) is 2.44 ± 0.17; in data set [1] (333 K) it was 2.3 ± 0.16; in data set [1] (353 K), 2.6 ± 0.18; in data set [1] (373 K) it was 2.94 ± 0.2; in data set [1] (393 K) it was 3.85 ± 0.26; in data set [1] (413 K) it was 4.36 ± 0.3.

On to `CCO` [ethanol] + Cn1cc[n+](C[Si](C)(C)C)c1.[Cl-], for which the activity coefficient came out at 0.153 ± 0.029 in data set [1] (333 K), 0.158 ± 0.029 in data set [1] (353 K) and 0.163 ± 0.029 in data set [1] (373 K).

In the case of `CCOC(C)=O` [ethyl acetate] + CCCCn1cc[n+](C)c1.O=S(=O)([O-])O, the activity coefficient amounted to 9.02 ± 0.62 in data set [1] (313 K); 9.95 ± 0.68 in data set [1] (333 K); 11.7 ± 0.8 in data set [1] (353 K); 12.8 ± 0.9 in data set [1] (373 K); 13.8 ± 0.9 in data set [1] (393 K).

Take `CCOC(C)=O` [ethyl acetate] + Cn1cc[n+](C[Si](C)(C)C)c1.[Cl-]: the activity coefficient came out at 4.4 ± 0.3 in data set [1] (313 K); 4.27 ± 0.29 in data set [1] (333 K); 5.14 ± 0.35 in data set [1] (353 K); 6.96 ± 0.47 in data set [1] (373 K); 8.26 ± 0.56 in data set [1] (393 K).

On to `CO` [methanol] + Cn1cc[n+](C[Si](C)(C)C)c1.[Cl-], for which the activity coefficient in data set [1] (333 K) came out at 0.0373; in data set [1] (353 K) it was 0.0421; in data set [1] (373 K) it was 0.0472.

As to `C[N+](=O)[O-]` [nitromethane] + CCCCn1cc[n+](C)c1.O=S(=O)([O-])O, the activity coefficient was 0.826 ± 0.053 in data set [1] (313 K); 0.771 ± 0.05 in data set [1] (333 K); 0.83 ± 0.053 in data set [1] (353 K); 0.939 ± 0.059 in data set [1] (373 K); 1.08 ± 0.07 in data set [1] (393 K); 1.18 ± 0.08 in data set [1] (413 K).

Turning to `C[N+](=O)[O-]` [nitromethane] + Cn1cc[n+](C[Si](C)(C)C)c1.[Cl-], the activity coefficient stood at 0.449 ± 0.036 in data set [1] (313 K); 0.442 ± 0.036 in data set [1] (333 K); 0.477 ± 0.037 in data set [1] (353 K); 0.527 ± 0.039 in data set [1] (373 K); 0.559 ± 0.04 in data set [1] (393 K); 0.599 ± 0.042 in data set [1] (413 K).

With `CCCO` [propan-1-ol] + Cn1cc[n+](C[Si](C)(C)C)c1.[Cl-], the activity coefficient amounted to 0.0747 ± 0.03 in data set [1] (333 K), 0.0878 ± 0.03 in data set [1] (353 K) and 0.102 ± 0.03 in data set [1] (373 K).

Take `C1CCOC1` [tetrahydrofuran] + CCCCn1cc[n+](C)c1.O=S(=O)([O-])O: the activity coefficient was 5.1 ± 0.35 in data set [1] (313 K); 5.61 ± 0.38 in data set [1] (333 K); 6.6 ± 0.45 in data set [1] (353 K); 7.34 ± 0.5 in data set [1] (373 K); 8.55 ± 0.58 in data set [1] (393 K).

On to `C1CCOC1` [tetrahydrofuran] + Cn1cc[n+](C[Si](C)(C)C)c1.[Cl-], for which the activity coefficient in data set [1] (313 K) came out at 3.09 ± 0.21; in data set [1] (333 K) it was 2.93 ± 0.2; in data set [1] (353 K) it was 3.7 ± 0.25; in data set [1] (373 K) it was 4.31 ± 0.29; in data set [1] (393 K), 4.79 ± 0.33.

Turning to `Cc1ccccc1` [toluene] + CCCCn1cc[n+](C)c1.O=S(=O)([O-])O, the activity coefficient is 8.51 ± 0.58 in data set [1] (313 K); 9.22 ± 0.63 in data set [1] (333 K); 9.7 ± 0.66 in data set [1] (353 K); 11.1 ± 0.8 in data set [1] (373 K); 13 ± 0.9 in data set [1] (393 K); 13.9 ± 1 in data set [1] (413 K).

As for `Cc1ccccc1` [toluene] + Cn1cc[n+](C[Si](C)(C)C)c1.[Cl-], the activity coefficient in data set [1] (313 K) was found to be 4.1 ± 0.28; in data set [1] (333 K) it was 3.8 ± 0.26; in data set [1] (353 K), 4.07 ± 0.28; in data set [1] (373 K), 4.67 ± 0.32; in data set [1] (393 K) it was 5.46 ± 0.37; in data set [1] (413 K), 6.21 ± 0.42.

For the compound `ClC(Cl)Cl` [trichloromethane] + Cn1cc[n+](C[Si](C)(C)C)c1.[Cl-], the activity coefficient in data set [1] (313 K) was determined as 0.112 ± 0.03; in data set [1] (333 K) it was 0.153 ± 0.029; in data set [1] (353 K), 0.2 ± 0.029; in data set [1] (373 K) it was 0.253 ± 0.03; in data set [1] (393 K), 0.301 ± 0.031; in data set [1] (413 K) it was 0.338 ± 0.032.
